Test in all cases: Kinase panel study
Common to all, as to type: biochemical
Conditions in all cases: read-out: Percentage of inhibition; for inhibition at 1 µM: 1000nM; for inhibition at 10 µM: 10000nM

Assay [1] concerns the target T1, FGFR3 K650E (Homo sapiens, UniProt P22607, K650E).
T1 construct: purchased Thermo Fisher Scientific
Put shortly: (§1)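 Outsourced panel screen. Format: ZLyte or Adapta, run per the manufacturer's procedures. Read-out: inhibition (%) at a single dose of 10 µM or 1 µM; IC50s also generated.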

Assay [2] deals with T2, KIT T670I (Homo sapiens, UniProt P10721, T670I).
T2 construct: purchased Thermo Fisher Scientific
Put shortly: as §1

Assay [3] deals with T3, NEK1 (Homo sapiens, UniProt Q96PY6).
T3 construct: purchased Thermo Fisher Scientific
T3 sequence (Q96PY6 1-1258): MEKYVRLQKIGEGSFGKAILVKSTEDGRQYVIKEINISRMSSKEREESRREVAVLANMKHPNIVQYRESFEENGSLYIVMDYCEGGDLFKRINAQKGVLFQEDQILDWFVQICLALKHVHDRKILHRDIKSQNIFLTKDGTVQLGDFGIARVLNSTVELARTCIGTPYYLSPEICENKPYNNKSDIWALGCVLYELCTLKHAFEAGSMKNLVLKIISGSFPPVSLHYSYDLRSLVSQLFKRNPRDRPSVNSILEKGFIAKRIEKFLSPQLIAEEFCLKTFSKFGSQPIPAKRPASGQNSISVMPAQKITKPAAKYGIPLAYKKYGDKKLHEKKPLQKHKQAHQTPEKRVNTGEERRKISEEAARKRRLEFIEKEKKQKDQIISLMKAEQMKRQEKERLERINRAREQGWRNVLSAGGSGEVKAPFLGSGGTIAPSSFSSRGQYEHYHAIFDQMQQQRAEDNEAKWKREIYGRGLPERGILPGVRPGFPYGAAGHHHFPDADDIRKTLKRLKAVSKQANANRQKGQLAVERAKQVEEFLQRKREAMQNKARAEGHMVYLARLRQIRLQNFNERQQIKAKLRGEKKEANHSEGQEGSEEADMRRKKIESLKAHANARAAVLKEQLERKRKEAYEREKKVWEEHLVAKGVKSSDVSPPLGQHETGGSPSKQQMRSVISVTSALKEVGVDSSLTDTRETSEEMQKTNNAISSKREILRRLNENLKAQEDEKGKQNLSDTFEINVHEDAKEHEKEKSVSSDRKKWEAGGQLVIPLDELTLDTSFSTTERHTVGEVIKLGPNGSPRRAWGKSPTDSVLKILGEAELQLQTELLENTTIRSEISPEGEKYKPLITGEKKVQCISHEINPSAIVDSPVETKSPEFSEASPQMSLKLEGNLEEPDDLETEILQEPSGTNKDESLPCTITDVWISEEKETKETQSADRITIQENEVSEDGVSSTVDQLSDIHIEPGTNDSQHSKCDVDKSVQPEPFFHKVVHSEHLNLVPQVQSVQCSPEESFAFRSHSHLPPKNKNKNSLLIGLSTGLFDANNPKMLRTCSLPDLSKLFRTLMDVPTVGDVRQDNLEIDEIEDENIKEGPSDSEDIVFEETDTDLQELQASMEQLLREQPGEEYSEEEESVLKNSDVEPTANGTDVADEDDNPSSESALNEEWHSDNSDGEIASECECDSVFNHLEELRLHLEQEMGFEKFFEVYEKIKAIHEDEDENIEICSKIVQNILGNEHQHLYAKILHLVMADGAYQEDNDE
In a few lines: as §1

Assay [4] has as its target T4, PAK3 (Homo sapiens, UniProt O75914).
T4 construct: purchased Thermo Fisher Scientific
In a few lines:
as §1

For assay [5], the target named is T5, SPHK2 (Homo sapiens, UniProt Q9NRA0).
T5 construct: purchased Thermo Fisher Scientific
T5 sequence (Q9NRA0 1-654): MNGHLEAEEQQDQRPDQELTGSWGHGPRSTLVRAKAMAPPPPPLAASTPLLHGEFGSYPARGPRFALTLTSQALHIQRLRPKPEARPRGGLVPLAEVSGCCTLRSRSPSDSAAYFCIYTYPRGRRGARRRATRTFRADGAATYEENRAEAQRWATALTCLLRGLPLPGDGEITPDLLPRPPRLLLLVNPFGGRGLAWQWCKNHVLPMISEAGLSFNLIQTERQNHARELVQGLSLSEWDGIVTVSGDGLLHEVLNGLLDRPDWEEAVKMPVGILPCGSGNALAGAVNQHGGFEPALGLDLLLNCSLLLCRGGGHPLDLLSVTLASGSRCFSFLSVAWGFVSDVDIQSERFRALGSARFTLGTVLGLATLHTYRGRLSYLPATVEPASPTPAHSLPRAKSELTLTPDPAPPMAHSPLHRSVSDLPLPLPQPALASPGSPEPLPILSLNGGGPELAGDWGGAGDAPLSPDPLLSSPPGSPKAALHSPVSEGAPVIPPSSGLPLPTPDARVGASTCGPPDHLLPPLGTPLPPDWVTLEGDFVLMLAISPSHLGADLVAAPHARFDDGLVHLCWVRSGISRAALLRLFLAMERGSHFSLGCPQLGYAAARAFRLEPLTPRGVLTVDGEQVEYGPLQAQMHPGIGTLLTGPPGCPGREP
In a few lines:
as §1

T4 sequence (O75914 whole entry): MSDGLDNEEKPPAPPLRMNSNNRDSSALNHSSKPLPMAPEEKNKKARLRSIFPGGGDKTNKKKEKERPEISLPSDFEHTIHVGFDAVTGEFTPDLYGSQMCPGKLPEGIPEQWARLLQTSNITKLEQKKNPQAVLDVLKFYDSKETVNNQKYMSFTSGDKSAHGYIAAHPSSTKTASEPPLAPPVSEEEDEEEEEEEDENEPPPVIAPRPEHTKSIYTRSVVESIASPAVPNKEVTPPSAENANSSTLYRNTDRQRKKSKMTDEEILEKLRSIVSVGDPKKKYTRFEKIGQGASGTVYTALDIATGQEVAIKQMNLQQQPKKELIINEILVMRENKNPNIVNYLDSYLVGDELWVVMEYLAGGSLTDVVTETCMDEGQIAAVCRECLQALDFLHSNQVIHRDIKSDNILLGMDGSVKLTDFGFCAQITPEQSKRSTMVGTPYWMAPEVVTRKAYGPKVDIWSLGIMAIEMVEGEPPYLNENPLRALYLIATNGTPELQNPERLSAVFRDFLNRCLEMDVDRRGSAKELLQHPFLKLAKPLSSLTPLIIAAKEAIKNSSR
T2 sequence (P10721 26-976 T670I): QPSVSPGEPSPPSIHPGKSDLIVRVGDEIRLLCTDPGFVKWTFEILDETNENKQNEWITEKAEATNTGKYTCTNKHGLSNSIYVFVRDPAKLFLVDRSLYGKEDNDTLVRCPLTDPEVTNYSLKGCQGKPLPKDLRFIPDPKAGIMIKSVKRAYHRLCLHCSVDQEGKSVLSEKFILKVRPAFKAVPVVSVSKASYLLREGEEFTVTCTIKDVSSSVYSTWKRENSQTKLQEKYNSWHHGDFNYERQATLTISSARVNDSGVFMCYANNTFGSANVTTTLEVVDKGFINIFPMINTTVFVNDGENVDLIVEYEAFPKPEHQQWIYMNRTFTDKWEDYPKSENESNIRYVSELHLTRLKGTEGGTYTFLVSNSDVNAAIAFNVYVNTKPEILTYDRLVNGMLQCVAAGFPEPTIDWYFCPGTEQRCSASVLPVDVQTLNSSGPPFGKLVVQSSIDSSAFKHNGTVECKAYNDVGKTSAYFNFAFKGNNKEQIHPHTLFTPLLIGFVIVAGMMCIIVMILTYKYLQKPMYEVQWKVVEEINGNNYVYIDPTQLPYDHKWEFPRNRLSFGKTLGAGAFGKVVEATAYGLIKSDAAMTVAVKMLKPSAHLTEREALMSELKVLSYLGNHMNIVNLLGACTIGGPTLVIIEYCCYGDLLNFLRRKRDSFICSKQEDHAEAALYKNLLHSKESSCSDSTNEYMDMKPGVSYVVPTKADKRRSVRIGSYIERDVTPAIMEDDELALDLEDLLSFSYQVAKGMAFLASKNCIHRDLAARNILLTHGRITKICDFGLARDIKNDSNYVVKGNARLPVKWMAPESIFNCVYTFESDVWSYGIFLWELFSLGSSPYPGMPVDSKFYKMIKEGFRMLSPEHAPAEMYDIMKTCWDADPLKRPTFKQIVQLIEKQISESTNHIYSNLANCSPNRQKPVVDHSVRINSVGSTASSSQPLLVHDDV
T1 sequence (P22607 23-806 K650E): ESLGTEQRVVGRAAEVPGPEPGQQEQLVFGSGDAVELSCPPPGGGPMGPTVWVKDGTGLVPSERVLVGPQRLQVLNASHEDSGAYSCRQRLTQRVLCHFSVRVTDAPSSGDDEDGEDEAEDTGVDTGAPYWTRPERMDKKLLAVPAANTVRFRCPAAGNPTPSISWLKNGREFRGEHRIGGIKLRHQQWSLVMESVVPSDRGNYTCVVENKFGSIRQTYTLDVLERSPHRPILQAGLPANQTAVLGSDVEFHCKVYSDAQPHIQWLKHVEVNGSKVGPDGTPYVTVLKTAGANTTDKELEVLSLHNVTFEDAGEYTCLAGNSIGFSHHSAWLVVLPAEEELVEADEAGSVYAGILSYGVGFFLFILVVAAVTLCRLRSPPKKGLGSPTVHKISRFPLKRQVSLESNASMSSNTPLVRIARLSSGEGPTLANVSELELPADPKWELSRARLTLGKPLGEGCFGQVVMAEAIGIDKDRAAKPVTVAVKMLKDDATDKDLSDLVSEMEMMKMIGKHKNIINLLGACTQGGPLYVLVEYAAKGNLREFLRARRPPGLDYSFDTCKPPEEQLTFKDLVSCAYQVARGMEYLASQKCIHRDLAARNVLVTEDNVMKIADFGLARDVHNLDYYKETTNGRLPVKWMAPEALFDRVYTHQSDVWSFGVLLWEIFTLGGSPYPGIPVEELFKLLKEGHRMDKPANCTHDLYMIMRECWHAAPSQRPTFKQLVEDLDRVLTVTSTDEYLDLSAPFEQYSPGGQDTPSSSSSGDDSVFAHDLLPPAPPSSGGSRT

For `COc1ccc2c(c1OC)c(=O)n1c3ccc(O)cc3c3ccnc2c31` [MW01, 5-Hydroxy-10,11-dimethoxy-9H-benzo[c]indolo[3,2,1-ij][1,5]naphthyridin-9-one], the inhibition at 1 µM in assay [1] is 6%; in assay [2], 1%; in assay [3] it was 23%; in assay [4], 10%; in assay [5], -16%. Moreover, the inhibition at 10 µM in assay [1] was 16%; in assay [2] it was 13%; in assay [3], 58%; in assay [4], 15%; in assay [5], -8%.
With `COc1ccc2cc3c(N)nn(C(=O)c4cccc(N(C)C)c4)c3nc2c1` [MW05, (3-Amino-7-methoxypyrazolo[3,4-b]quinolin-1-yl)-[3-(dimethylamino)phenyl]methanone], the inhibition at 1 µM is 8% in assay [1]; -1% in assay [2]; -1% in assay [3]; 26% in assay [4]; -7% in assay [5]. For the same molecule, the inhibition at 10 µM is -3% in assay [1]; -13% in assay [2]; 6% in assay [3]; 15% in assay [4]; -4% in assay [5].

The record behind these values is patent EP4467141A1, “PYRAZOLO-QUINOLINES AS SELECTIVE INHIBITORS OF GENOTOXIC STRESS-INDUCED IKK/NF- KB PATHWAYS FOR CANCER THERAPY” (Max-Delbrück-Centrum für Molekulare Medizin in der …, priority 2023, dated 2024).
